From patent US20080108608A1, “Pyrimidines With Tie2 (Tek) Activity” (ASTRAZENECA AB, priority 2003, published 2008)

Assays:
[1] = biological target: T1, Tie2 receptor (Homo sapiens, UniProt Q02763); assay: Cellular Tie2 autophosphorylation assay (Test (b)); assay type: cell-based; conditions: Ang1 ligand stimulated whole cells, e.g. EA.hy926/B3; read-out: IC50 (μM) Test (b): Inhibition of autophosphorylation of Tie2 receptor tyrosine kinase
T1 construct: natural cell lines or primary cells which are known to express the receptor of choice; endogenous in cells; host or cells: EA.hy926/B3 cells (HUVEC named as an alternative)
T1 sequence (Q02763 23-1124): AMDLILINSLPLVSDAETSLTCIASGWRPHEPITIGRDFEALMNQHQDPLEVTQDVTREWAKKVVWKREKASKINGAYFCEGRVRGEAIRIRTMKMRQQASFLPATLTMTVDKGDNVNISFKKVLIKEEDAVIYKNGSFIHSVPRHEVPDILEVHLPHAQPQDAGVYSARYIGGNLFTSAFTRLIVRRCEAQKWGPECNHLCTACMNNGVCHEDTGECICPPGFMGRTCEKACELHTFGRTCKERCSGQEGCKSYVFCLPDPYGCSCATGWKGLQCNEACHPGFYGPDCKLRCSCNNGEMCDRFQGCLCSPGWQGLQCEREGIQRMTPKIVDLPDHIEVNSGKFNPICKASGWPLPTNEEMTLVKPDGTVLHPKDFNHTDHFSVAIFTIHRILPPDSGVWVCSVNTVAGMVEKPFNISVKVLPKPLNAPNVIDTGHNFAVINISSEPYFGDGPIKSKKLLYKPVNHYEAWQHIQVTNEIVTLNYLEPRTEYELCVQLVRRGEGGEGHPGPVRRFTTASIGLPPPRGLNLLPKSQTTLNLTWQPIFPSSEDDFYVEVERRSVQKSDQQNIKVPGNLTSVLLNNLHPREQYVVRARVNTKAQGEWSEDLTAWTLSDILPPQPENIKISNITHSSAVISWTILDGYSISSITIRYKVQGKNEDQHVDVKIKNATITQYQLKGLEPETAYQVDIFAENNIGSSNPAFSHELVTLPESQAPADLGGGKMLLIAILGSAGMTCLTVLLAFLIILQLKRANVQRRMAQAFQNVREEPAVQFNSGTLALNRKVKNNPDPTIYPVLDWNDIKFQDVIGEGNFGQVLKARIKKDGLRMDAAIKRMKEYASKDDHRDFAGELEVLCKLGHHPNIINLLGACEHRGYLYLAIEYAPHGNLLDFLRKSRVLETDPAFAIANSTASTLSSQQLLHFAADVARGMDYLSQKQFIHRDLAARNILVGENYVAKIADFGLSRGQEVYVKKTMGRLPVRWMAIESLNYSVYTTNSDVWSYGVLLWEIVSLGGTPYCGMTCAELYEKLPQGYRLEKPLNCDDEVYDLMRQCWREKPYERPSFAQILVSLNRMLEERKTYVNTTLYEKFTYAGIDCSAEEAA
From the text: b. Cellular Tie2 Autophosphorylation Assay
This assay is based on measuring the ability of compounds to inhibit autophosphorylation of the Tie2 receptor which normally leads to the production of “activated” receptor that in turn initiates the particular signal transduction pathways associated with the receptor function.
Autophosphorylation can be achieved by a number of means. It is known that expression of recombinant kinase domains in baculoviral systems can lead to the production of phosphorylated and activated receptor. It is also reported that over expression of receptors in recombinant cell lines can itself lead to receptor autophosphorylation in the absence of the ligand (Heldin C-H. 1995 Cell: 80, 213-223; Blume-J. P, Hunter T. 2001 Nature: 411, 355-65). Furthermore, there are numerous literature examples in which chimaeric receptors have been constructed. In these cases the natural, external cell surface domain of the receptor has been replaced with that of a domain which is known to be readily dimerised via the addition of the appropriate ligand (e.g. TrkA-Tie2/NGF ligand (Marron, M. B., et al., 2000 Journal of Biological Chemistry: 275:39741-39746) or C-fins-Tie-1/CSF-1 ligand (Kontos, C. D., et al., 2002 Molecular and Cellular Biology: 22, 1704-1713). Thus when the chimaeric receptor expressed in a host cell line and the respective ligand is added, this induces autophosphorylation of the chimeric receptor's kinase domain. This approach has the advantage of often allowing a known (and often easily obtained) ligand to be used instead of having to identify and isolate the natural ligand for each receptor of interest.
Naturally if the ligand is available one can use natural cell lines or primary cells which are known to express the receptor of choice and simply stimulate with ligand to achieve ligand induced phosphorylation. […]

[2] = biological target: T2, Tie2 receptor tyrosine kinase (Homo sapiens, UniProt Q02763); assay: In vitro receptor tyrosine kinase inhibition assay (Test (a)), ELISA based; assay type: biochemical; conditions: recombinant human Tie2 kinase domain
T2 construct: consist of only the intracellular portion C-terminal portion of the respective receptor, within which is found the kinase domain; made in house; host or cells: baculovirus/Sf21 insect cells (or alternative equivalent); used as cleared cell lysate
T2 sequence (Q02763 770-1124 limits assumed): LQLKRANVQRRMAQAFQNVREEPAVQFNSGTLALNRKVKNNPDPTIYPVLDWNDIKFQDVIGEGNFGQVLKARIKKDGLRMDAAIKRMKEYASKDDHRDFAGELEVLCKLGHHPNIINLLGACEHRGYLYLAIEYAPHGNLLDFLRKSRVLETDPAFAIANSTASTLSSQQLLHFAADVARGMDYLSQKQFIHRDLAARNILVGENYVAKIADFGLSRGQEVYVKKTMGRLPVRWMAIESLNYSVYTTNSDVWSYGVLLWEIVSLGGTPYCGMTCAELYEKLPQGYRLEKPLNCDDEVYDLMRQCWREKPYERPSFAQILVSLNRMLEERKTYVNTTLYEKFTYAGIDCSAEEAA
Method: a. In Vitro Receptor Tyrosine Kinase Inhibition Assay
To test for inhibition of Tie2 receptor tyrosine kinase, compounds are evaluated in a non-cell based protein kinase assay by their ability to inhibit the protein kinase enzyme phosphorylation of a tyrosine containing polypeptide substrate in an ELISA based microtitre plate assay. In this particular case, the assay was to determine the IC50, for three different recombinant human tyrosine kinases Tie2, KDR and Flt.
To facilitate production of the tyrosine kinases, recombinant receptor genes were produced using standard molecular biology cloning and mutagenesis techniques. These recombinant proteins fragments encoded within these genes consist of only the intracellular portion C-terminal portion of the respective receptor, within which is found the kinase domain. The recombinant genes encoding the kinase domain containing fragments were cloned and expressed in standard baculovirus/Sf21 system (or alternative equivalent) […]
Constitutive kinase activity of these recombinant proteins was determined by their ability to phosphorylate a synthetic peptide (made up of a random co-polymer of Glutamic Acid, Alanine and Tyrosine in the ratio of 6:3:1). […]
The immobilised phospho-peptide product of the reaction was detected by immunological methods. […] Following extensive washing with PBS-T, HRP activity in each well of the plate was measured colorimetrically using 22′-Azino-di-[3-ethylbenzthiazoline sulfonate (6)]diammonium salt crystals ABTS (Sigma P4922—prepared as per manufactures instructions) as a substrate incubated for 30-45 minutes to allow colour development, before 100 ul of 1M H2SO4 was added to stop the reaction.
Quantification of colour development and thus enzyme activity was achieved by the measurement of absorbance at 405 nm on a Molecular Devices ThermoMax microplate reader. Kinase inhibition for a given compound was expressed as an IC50 value. […] The range of phosphorylation was calculated from the positive (vehicle plus ATP) and negative (vehicle minus ATP) control values.

| IC50 [1] [µM] | IC50 [2] [µM] | Compound |
| --- | --- | --- |
| 0.337 | 19.9 | Cc1cc(NC(=O)Nc2cccc(C#Cc3cnc(N)nc3)c2)on1 [Example 19, N-{3-[(2-aminopyrimidin-5-yl)ethynyl]phenyl}-N′-(3-methylisoxazol-5-yl)urea] |
| 2.59 | 5.7 | CC(C)(C)c1cc(NC(=O)Nc2cccc(C#Cc3cnc(NCCN4CCCC4)nc3)c2)no1 [Example 33, N-(5-tert-butylisoxazol-3-yl)-N′-[3-({2-[(2-pyrrolidin-1-ylethyl)amino]pyrimidin-5-yl}ethynyl)phenyl]urea] |
| 3.29 | 74.9 | CC(C)(C)c1nnc(NC(=O)Nc2cccc(C#Cc3cnc(NCCN4CCCC4)nc3)c2)s1 [Example 48, N-(5-tert-butyl-1,3,4-thiadiazol-2-yl)-N′-[3-({2-[(2-pyrrolidin-1-ylethyl)amino]pyrimidin-5-yl}ethynyl)phenyl]urea] |
